This is an account of results in patent US12221494B2, “Short synthetic peptides and their uses for treating retinal degenerative diseases and/or tissue injuries” (MacKay Memorial Hospital, priority 2019, dated 2025).

This experiment concerns TNF-α mRNA. The experiment is described as follows: Hyperosmotic stress-induced TNF-α gene expression in rabbit corneal epithelial cells (qPCR). In kind it is cell-based. To be noted: 20 μM peptide 6 h, then hyperosmotic medium (463 mOsM) 3 h, solvent 12.8-fold. How it is done: Total RNA was extracted from cells using TRIzol (Invitrogen). Synthesis of cDNA was performed with 1 μg of total RNA at 50° C. for 50 min using oligo(dT) primers and reverse transcriptase (Superscript III; Invitrogen). Briefly, quantification of cDNA was performed in the LightCycler (Roche, Mannheim, Germany) using the DNA Master SYBR Green I kit (Roche) with the following cycling conditions: initial denaturation at 95° C. for 10 min, followed by 40 cycles at 95° C. for 10 s, 60° C. for 10 s, and 72° C. for 10 s and a 5-min terminal incubation at 72° C. The data were calculated with AACt. The expression was then normalized against the expression of glyceraldehyde-3-phosphate dehydrogenase (GAPDH). The PCR primers were mouse Survivin sense, 5′-[…]-3′ (SEQ ID NO: 27), anti-sense, 5′-[…]-3′ (SEQ ID NO: 28) (accession number: NM_001012273.1; PCR product: 136 bp); mouse GAPDH sense, 5′-[…]-3′ (SEQ ID NO: 29), anti-sense, 5′-[…]-3′ (SEQ ID NO: 30) (NM_001289726.1; 149 bp). For analysis rabbit inflammatory gene expression, The PCR primers were rabbit TNF-αsense, 5′-[…]-3′ (SEQ ID NO: 31), anti-sense, 5′-[…]-3′ (SEQ ID NO: 32) (accession number: NM 001082263.1); rabbit IL-1βsense, 5′-[…]-3′(SEQ ID NO: 33), anti-sense, 5′-[…]-3′ (SEQ ID NO: 34) (NM 001082201.1); rabbit GAPDH sense, 5′-[…]-3′ (SEQ ID NO: 35), anti-sense, 5′-[…]-3′ (SEQ ID NO: 36) (accession number:NM 001082253.1). The cycle threshold (Ct) values of the PCR product and a GAPDH (Glyceraldehyde 3-phosphate dehydrogenase) control mRNA were used to calculate relative quantities of mRNA.
Limbal stem epithelial cells (LSEC) were isolated from 6-month-old New Zealand white rabbits and continuously cultivated for 14 days byDMEM/F-12basalmedium based cell-suspension culture to achieve corneal-liked epithelial cell differentiation as previously described (Ho et al., Stem Cells. 2013; 31:1775). […] After 3 h, quantitative real-time PCR was used to estimate HOP-induced Tumor necrosis factor (TNF)-α and nterleukin-1 beta (IL-1β) expressions. […]

“NH2-(D-Ser)-Leu-Gly-Ala-Glu-Gln-COOH (SLGAEQ; HELM PEPTIDE1{[dS].L.G.A.E.Q}$$$$V2.0; SMILES CC(C)C[C@H](NC(=O)[C@H](N)CO)C(=O)NCC(=O)N[C@@H](C)C(=O)N[C@@H](CCC(=O)O)C(=O)N[C@@H](CCC(N)=O)C(=O)O) [6-mer dS]”: the “mRNA expression of TNF-α, in words” value was “apparently repressed the mRNA expression of TNF-α and IL-1β”.
